{"source": "paper PMC6728138", "about": "“Quantitative mapping of protein-peptide affinity landscapes using spectrally encoded beads” (eLife, 2019)", "key": {"CN": {"tested_on": "CN", "conditions": "ref Fruman et al., 1992; cited from earlier work", "from_the_text": "Consistent with MRBLE-pep measurements, ..."}, "[1]": {"tested_on": "NFAT-driven luciferase activity in HEK293T cells", "assay": "In vivo calcineurin activity assay (NFAT dual luciferase reporter)", "type": "cell-based", "conditions": "initial in vivo experiment, FK506 1 μM", "from_the_text": "To test the degree to which in vitro MRBLE-pep affinities predict in vivo inhibition, we used a previously developed dual luciferase reporter assay to assess the activity of the NFAT2 transcription factor in HEK293T cells (Figure 6A) ([Grigoriu et al., 2013]). NFAT2 must be dephosphorylated by CN to accumulate in the nucleus, where it activates transcription of its target genes, and this interaction can be inhibited by peptides or small molecules that binds to CN. Reduction of NFAT2-dependent transcriptional activity upon expression of a competing PxIxIT peptide therefore reflects, quantitatively, the affinity of the inhibitor peptide for CN. Candidate PxIxIT inhibitors were co-expressed as GFP-fusion proteins within cells to enhance their stability and facilitate direct measurement of inhibitor concentrations.\nPxIxIT peptides were fused to eGFP in pEGFPc1 vector. HEK293T cells were transfected with pEGFPc1 clones, pNFAT-Luc and CMV-Renilla in a 6-well plate format. 18 hr post transfection, 1μM FK506 or DMSO (vehicle) was added to the media as needed. […] 6 hr after pathway activation, cells were collected, washed in PBS and re-suspended in DMEM media. 80% of the cells were used to measure luciferase activity and renilla using the Dual-Glo assay system (Promega) with three technical replicates. The remaining cells were frozen and stored at −80°C. Cell lysates were prepared in RIPA buffer. 15–20 μg of lysate was analyzed by Western for expression of GFP. GFP signal was normalized to either actin or tubulin. Luciferase activity (normalized to renilla expression) was further normalized to eGFP expression. Data represent at least three experimental replicates."}, "calcineurin (CN)": {"biological_target": "T1, calcineurin (CN) (Homo sapiens, UniProt Q08209)", "T1 construct": "human calcineurin A isoforms (truncated at residue 400); made in house; host or cells: E. coli BL21 (DE3)", "T1 sequence (Q08209 1-400 limits assumed)": "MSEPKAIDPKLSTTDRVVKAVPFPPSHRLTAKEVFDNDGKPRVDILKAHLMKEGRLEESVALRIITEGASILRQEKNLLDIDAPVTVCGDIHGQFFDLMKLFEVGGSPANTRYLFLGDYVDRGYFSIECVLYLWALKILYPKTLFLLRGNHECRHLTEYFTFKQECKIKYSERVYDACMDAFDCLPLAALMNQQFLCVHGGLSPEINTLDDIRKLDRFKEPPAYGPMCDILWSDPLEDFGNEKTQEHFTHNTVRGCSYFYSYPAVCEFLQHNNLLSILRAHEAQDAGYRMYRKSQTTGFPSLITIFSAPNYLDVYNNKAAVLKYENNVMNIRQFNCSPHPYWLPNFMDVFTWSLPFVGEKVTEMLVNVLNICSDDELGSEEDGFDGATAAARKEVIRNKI", "T1 sequence (P63098 whole entry partner, the tested form may be a part, canonical isoform)": "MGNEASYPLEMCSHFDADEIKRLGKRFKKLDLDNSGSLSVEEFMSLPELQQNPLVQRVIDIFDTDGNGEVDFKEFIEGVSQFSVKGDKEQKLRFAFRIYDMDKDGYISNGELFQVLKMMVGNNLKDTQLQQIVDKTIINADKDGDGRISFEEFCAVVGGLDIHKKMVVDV", "assay": "MRBLE-pep calcineurin binding assay (concentration-dependent)", "procedure": "MRBLEs were prepared by transferring a 20 μL aliquot from a 600 μL suspension (∼3000–8000 beads depending on pellet size) to a 100 μL PCR strip (20 μL for each CN concentration), exchanging buffer via 3 cycles of iterative pelleting, decanting, and resuspension with 0.1% PBST containing 5% BSA, pH = 7.5 (100 μL), and then left mixing at ∼5 °C on a rotator in the same wash buffer overnight (∼14 hr). MRBLEs were then buffer exchanged once again with CN binding buffer (50 mM Tris pH = 7.5, 150 mM NaCl, 0.1% TWEEN 20) via three iterative cycles of pelleting, decanting, and resuspension.\nAfter incubation, MRBLEs were pelleted, decanted, and washed once with 0.1% PBST (100 μL). After a final round of pelleting and decanting, 20 μL of 0.1% PBST was added and the beads were transferred to a quartz microscope slide for imaging.\nThe affinity ( Kd ) for each peptide in a MBRLE library was determined via a two-step nonlinear regression using a single-site binding model:(1) Ii=(Imax[CNtotal])/(Kd,i+[CNtotal]) where Ii is the median measured fluorescence intensity for each peptide, Kd,i is the dissociation constant for that interaction, [ CNtotal ] is total CN concentration, and Imax is a global variable representing the fluorescence intensity once MRBLE-pep beads are saturated. First, we determined the global saturation value ( Imax ), by globally fitting the top 80% highest-intensity MRBLE codes. Next, we globally fit the entire data set using this Imax value to yield an estimated absolute affinity ( Kd ) for all peptides in the library. […] Differences in binding affinity were calculated relative to a reference peptide using the standard equation:(2) ΔΔG=RTln(Kd,i/Kd,ref)\nNext, we used this reference value and calculated differences in binding affinity ( ΔΔG ) to estimate absolute Kd values for each peptide within the calibration and full calibration libraries (Figure 2—source data 1, Figure 2—source data 2, Figure 5—source data 1, Figure 5—source data 2, Figure 5—source data 3, Figure 5—source data 4)."}}, "note": "Where two headings read alike, the source gives them in different places. Ends that are not written are not given here."}
{"compound": "C=CC[C@@H]1/C=C(\\C)C[C@H](C)C[C@H](OC)[C@H]2O[C@@](O)(C(=O)C(=O)N3CCCC[C@H]3C(=O)O[C@H](/C(C)=C/[C@@H]3CC[C@@H](O)[C@H](OC)C3)[C@H](C)[C@@H](O)CC1=O)[C@H](C)C[C@@H]2OC", "note": "[FK506]", "values": [{"measurement": "IC50", "setting": "CN", "value": "~0.5", "unit": "nM"}, {"measurement": "NFAT-driven luciferase activity, normalized to renilla and eGFP expression, relative to empty vector (Data)", "setting": "[1]; replicate 1", "value": 0.09}, {"measurement": "NFAT-driven luciferase activity, normalized, relative to empty vector (Data)", "setting": "[1]; replicate 2", "value": 0.08616}, {"measurement": "NFAT-driven luciferase activity, normalized, relative to empty vector (Data)", "setting": "[1]; replicate 3", "value": 0.09188}]}
{"compound": "HAVIVITGPH-NH2", "values": [{"measurement": "Kd", "setting": "calcineurin (CN); bold value over the codes, read-out: kd, 'Triplicate high' library", "value": "1270 ± 130", "unit": "nM"}]}
{"compound": "HPSIVITGPH-NH2", "values": [{"measurement": "Kd", "setting": "calcineurin (CN); kd, 'Triplicate high' library", "value": "880 ± 260", "unit": "nM"}]}
{"compound": "HPVIVVTGPH-NH2", "values": [{"measurement": "Kd", "setting": "calcineurin (CN); apparent Kd, 'Triplicate low' (Figure 2C, measure not given)", "value": "2000 ± 400", "unit": "nM"}, {"measurement": "Kd", "setting": "calcineurin (CN); kd, 'Triplicate high' library", "value": "920 ± 250", "unit": "nM"}]}
